One compound from article PMC10058949, “Effect of N-Terminal Peptide Modifications on In Vitro and In Vivo Properties of ^177Lu-Labeled Peptide Analogs Targeting CCK2R” (Pharmaceutics, 2023) can be followed below.

The structures appear in SMILES notation.

Series [1] can be described thus: Biodistribution blocking experiment with 1000-fold excess of non-radiolabeled peptide. Format: in vivo, mice. The settings on record: female, BALB/c nude, mouse, in vivo, iv, total radioactivity, blocking. As for the experimental part:
Then, after 7–11 days, when visible tumor xenografts were formed, groups of 5 mice were injected intravenously via a lateral tail vein with ~0.5 MBq of radiolabeled peptide, corresponding to 20 pmol of peptide, in a total volume of ~150 µL in PBS/0.5% BSA. Using an additional mouse per group, a blocking study was performed by co-injecting a 1000-fold molar excess of the respective peptide analog (20 nmol) together with the radiolabeled peptide. For quantification, a 1:1, 1:10 and 1:50 standard was prepared using aliquots of the injection solution mixed with PBS/0.5% BSA. Mice were euthanized by cervical dislocation 4 h after injection. Subsequently, a blood sample was collected, and different tissues were dissected. All samples, as well as the rest of the body were weighed, and the activity measured in the γ-counter together with the standard. Results were expressed as percentage of injected activity per gram of tissue (%IA/g).

The subject of series [2] is A431-CCK2R xenografted BALB/c nude mice. The series can be described thus: in vivo. The settings on record: mouse. The text has this: Based on these preliminary studies, [^177Lu]Lu-2 was selected for further biodistribution studies evaluating the tumor uptake and tissue distribution for up to 7 days after injection. This study was approved by the Nijmegen Medical Center animal ethics committee (RUDEC) and the Dutch animal ethics committee (CCD) of the Radboud University (2020–0007-020). Female BALB/c nude mice were inoculated with A431-CCK2R cells at an age of 8–10 weeks (n = 20). When tumor xenografts were formed, mice were injected intravenously via a lateral tail vein with ~1 MBq of [^177Lu]Lu-2, corresponding to 20 pmol of peptide, in a total volume of 200 µL in PBS/0.5% BSA. For quantification, a 1% standard was used. At different time points of 1 h, 24 h, 3 days, and 7 days after injecton, animals were euthanized by CO2/O2-asphyxiation and a blood sample was immediately drawn, and tissues of interest (spleen, pancreas, stomach, intestine, kidneys, liver, heart, lung, muscle, femur, A431-CCK2R tumor, and A431-mock tumor) were dissected. All collected samples were weighed and measured in the γ-counter together with the standard. Results were expressed as percentage of injected activity per gram of tissue (%IA/g), and tumor-to-organ activity ratios were calculated for selected tissues. For dose-limiting organs, kidneys and stomach, dosimetry estimates were calculated using Olinda-EXM (version 2.2, Vanderbilt University) and standard weights for humans (male and female). For this purpose, the % IA/g determined in mice was extrapolated to humans using the following equation: % IA per organ in humans=[%IA/gin mice×mass of mice (kg)]×(mass of human organ (g)/total body mass of human (kg))

[3] abbreviates: female, BALB/c nude, iv, 20 pmol, 72 h.

In the case of `CCCC[C@@H](C(=O)N[C@@H](CC(=O)O)C(=O)N[C@@H](Cc1cccc2ccccc12)C(N)=O)N(C)C(=O)[C@H](Cc1c[nH]c2ccccc12)NC(=O)CCNC(=O)CC(O)CNC(=O)CC(O)CNC(=O)CN1CCN(CC(=O)O)CCN(CC(=O)O)CCN(CC(=O)O)CC1` (some centres unmarked) [[^177Lu]Lu-2, metal not drawn], the tissue uptake at 4 h in series [1] (uptake in A431-CCK2R xenograft) is 0.39 %ID/g; in series [1] (uptake in A431-mock xenograft) it was 0.16 %ID/g; in series [1] (uptake in blood), 0.02 %ID/g; in series [1] (uptake in femur), 0.09 %ID/g; in series [1] (uptake in heart), 0.04 %ID/g; in series [1] (uptake in lung), 0.2 %ID/g. For the same compound, the tissue uptake at 4 h amounted to 0.05 %ID/g in series [1] (uptake in pancreas) and 0.09 %ID/g in series [1] (uptake in stomach). Moreover, the “uptake in A431-CCK2R xenografts” value in series [2] (female, BALB/c nude, iv, 20 pmol, 1 h) is ~ 56 % IA/g; in series [2] (setting [3]) it was ~ 13 % IA/g. For the same compound, the Tumor-to-kidney ratio in series [2] (setting [3]) was determined as 17.3. In series [2] (setting [3]), the Tumor-to-stomach ratio worked out at 5.5. Besides, the uptake in kidneys entry in series [2] (setting [3]) is “below 1 % IA/g”. Besides, the “decrease of kidney uptake after 24 h versus 1 h p.i.” value in series [2] is ~ 54%. Further, the “drop of uptake in A431-CCK2R xenografts after 24 h versus 1 h p.i.” value in series [2] was ~ 40%. For the same compound, the “improvement in tumor uptake in comparison with [177Lu]Lu-PP-F11N” value in series [2] was 4 fold. In series [2], the “reduction of stomach uptake at 24 h p.i. versus 1 h p.i.” value was ~ 33%.
